Test system: GRMD plasma proteins
Format: in vivo, dog
Settings: Post-Treatment to GRMD baseline; Increased in GRMD

## O=c1ccc(-c2cnc(OCC(F)(F)F)nc2)nn1Cc1cncc(F)c1 [EDG-5506]
  Change from GRMD Baseline (fraction): Fructose-bisphosphate aldolase A (ALDOA): -0.0462 fraction
  Change from GRMD Baseline (fraction): G2/mitotic-specific cyclin-B1 (CCNB1): 0.0445 fraction
  Change from GRMD Baseline (fraction): Galectin-4 (LGALS4): -0.0246 fraction
  Change from GRMD Baseline (fraction): Galectin-7 (LGALS7): 0.0215 fraction
  Change from GRMD Baseline (fraction): Glucose-6-phosphate isomerase (GPI): -0.1195 fraction
  Change from GRMD Baseline (fraction): Glyceraldehyde-3-phosphate dehydrogenase (GAPDH): 0.1936 fraction
  Change from GRMD Baseline (fraction): Glycogen synthase kinase-3 alpha/beta (GSK3A GSK3B): -0.1722 fraction
  Change from GRMD Baseline (fraction): Granulocyte-macrophage colony-stimulating factor (CSF2): -0.1154 fraction
  Change from GRMD Baseline (fraction): Growth factor receptor-bound protein 2 (GRB2): -0.2826 fraction
  Change from GRMD Baseline (fraction): Growth/differentiation factor 5 (GDF5): -0.0828 fraction
  Change from GRMD Baseline (fraction): Heat shock 70 kDa protein 1A (HSPA1A): -0.1812 fraction
  Change from GRMD Baseline (fraction): Heat shock cognate 71 kDa protein (HSPA8): -0.1958 fraction
  Change from GRMD Baseline (fraction): Heat shock protein HSP 90-alpha/beta (HSP90AA1 HSP90AB1): -0.0775 fraction
  Change from GRMD Baseline (fraction): Heat shock protein HSP 90-beta (HSP90AB1): -0.0807 fraction
  Change from GRMD Baseline (fraction): Heat shock protein beta-1 (HSPB1): -0.0394 fraction
  Change from GRMD Baseline (fraction): Hepatoma-derived growth factor-related protein 2 (HDGFRP2): 0.011 fraction
  Change from GRMD Baseline (fraction): Heterogeneous nuclear ribonucleoprotein A/B (HNRNPAB): -0.0915 fraction
  Change from GRMD Baseline (fraction): Heterogeneous nuclear ribonucleoprotein Q (SYNCRIP): -0.0651 fraction
  Change from GRMD Baseline (fraction): Heterogeneous nuclear ribonucleoproteins A2/B1 (HNRNPA2B1): -0.1176 fraction
  Change from GRMD Baseline (fraction): Hexokinase-2 (HK2): 0.0338 fraction
  Change from GRMD Baseline (fraction): Histidine triad nucleotide-binding protein 1 (HINT1): -0.0574 fraction
  Change from GRMD Baseline (fraction): Histone H1.2 (HIST1H1C): -0.0242 fraction
  Change from GRMD Baseline (fraction): Histone deacetylase 8 (HDAC8): 0.0429 fraction
  Change from GRMD Baseline (fraction): Homeodomain-interacting protein kinase 3 (HIPK3): 0.4997 fraction
  Change from GRMD Baseline (fraction): Immunoglobulin superfamily containing leucine-rich repeat protein 2 (ISLR2): -0.0595 fraction
  Change from GRMD Baseline (fraction): Inducible T-cell costimulator (ICOS): -0.0476 fraction
  Change from GRMD Baseline (fraction): Inosine-5'-monophosphate dehydrogenase 2 (IMPDH2): -0.0129 fraction
  Change from GRMD Baseline (fraction): Insulin-degrading enzyme (IDE): -0.2863 fraction
  Change from GRMD Baseline (fraction): Insulin-like growth factor-binding protein 3 (IGFBP3): 0.0105 fraction
  Change from GRMD Baseline (fraction): Intercellular adhesion molecule 5 (ICAM5): -0.1345 fraction
  Change from GRMD Baseline (fraction): Interferon alpha-10 (IFNA10): -0.0472 fraction
  Change from GRMD Baseline (fraction): Interleukin-1 alpha (IL1A): -0.0188 fraction
  Change from GRMD Baseline (fraction): Interleukin-1 receptor-like 2 (IL1RL2): 0.0618 fraction
  Change from GRMD Baseline (fraction): Interleukin-15 receptor subunit alpha (IL15RA): -0.0392 fraction
  Change from GRMD Baseline (fraction): Interleukin-17F (IL17F): -0.0474 fraction
  Change from GRMD Baseline (fraction): Interleukin-37 (IL37): -0.0158 fraction
  Change from GRMD Baseline (fraction): Junctional adhesion molecule B (JAM2): -0.0421 fraction
  Change from GRMD Baseline (fraction): Junctional adhesion molecule C (JAM3): 0.0569 fraction
  Change from GRMD Baseline (fraction): Kallikrein-6 (KLK6): -0.032 fraction
  Change from GRMD Baseline (fraction): Kallikrein-12 (KLK12): 0.0927 fraction
  Change from GRMD Baseline (fraction): Kallikrein-14 (KLK14): 0.0054 fraction
  Change from GRMD Baseline (fraction): Kin of IRRE-like protein 3 (KIRREL3): 0.0811 fraction
  Change from GRMD Baseline (fraction): Kremen protein 2 (KREMEN2): -0.0135 fraction
  Change from GRMD Baseline (fraction): Kynureninase (KYNU): 0.1449 fraction
  Change from GRMD Baseline (fraction): L-Selectin (SELL): -0.0484 fraction
  Change from GRMD Baseline (fraction): L-lactate dehydrogenase B chain (LDHB): -0.1273 fraction
  Change from GRMD Baseline (fraction): Leucine-rich repeat serine/threonine-protein kinase 2 (LRRK2): -0.023 fraction
  Change from GRMD Baseline (fraction): Leucine-rich repeat transmembrane protein FLRT1 (FLRT1): 0.162 fraction
  Change from GRMD Baseline (fraction): Low affinity immunoglobulin epsilon Fc receptor (FCER2): -0.0106 fraction
  Change from GRMD Baseline (fraction): MAP kinase-activated protein kinase 2 (MAPKAPK2): -0.1017 fraction
  Change from GRMD Baseline (fraction): MAP kinase-activated protein kinase 3 (MAPKAPK3): -0.0643 fraction
  Change from GRMD Baseline (fraction): Macrophage scavenger receptor types I and II (MSR1): 0.4558 fraction
  Change from GRMD Baseline (fraction): Malate dehydrogenase, cytoplasmic (MDH1): -0.0153 fraction
  Change from GRMD Baseline (fraction): Methionine aminopeptidase 2 (METAP2): -0.0243 fraction
  Change from GRMD Baseline (fraction): Microtubule-associated protein tau (MAPT): -0.0598 fraction
  Change from GRMD Baseline (fraction): Mitogen-activated protein kinase 3 (MAPK3): -0.1158 fraction
  Change from GRMD Baseline (fraction): Mitogen-activated protein kinase 8 (MAPK8): -0.1634 fraction
  Change from GRMD Baseline (fraction): Mitogen-activated protein kinase 12 (MAPK12): -0.2043 fraction
  Change from GRMD Baseline (fraction): Mitogen-activated protein kinase 14 (MAPK14): -0.1229 fraction
  Change from GRMD Baseline (fraction): Mothers against decapentaplegic homolog 3 (SMAD3): -0.0623 fraction
  Change from GRMD Baseline (fraction): Myeloblastin (PRTN3): -0.0133 fraction
  Change from GRMD Baseline (fraction): Myoglobin (MB): -0.1998 fraction
  Change from GRMD Baseline (fraction): Myosin-binding protein C, slow-type (MYBPC1): -0.0674 fraction
  Change from GRMD Baseline (fraction): NKG2D ligand 2 (ULBP2): 0.031 fraction
  Change from GRMD Baseline (fraction): NSFL1 cofactor p47 (NSFL1C): -0.264 fraction
  Change from GRMD Baseline (fraction): Natural cytotoxicity triggering receptor 3 (NCR3): -0.0108 fraction
  Change from GRMD Baseline (fraction): Neuronal cell adhesion molecule (NRCAM): -0.0939 fraction
  Change from GRMD Baseline (fraction): Neutral ceramidase (ASAH2): -0.0127 fraction
  Change from GRMD Baseline (fraction): Nucleoside diphosphate kinase A (NME1): -0.1372 fraction
  Change from GRMD Baseline (fraction): OCIA domain-containing protein 1 (OCIAD1): -0.0044 fraction
  Change from GRMD Baseline (fraction): Oncostatin-M (OSM): 0.019 fraction
  Change from GRMD Baseline (fraction): Opioid-binding protein/cell adhesion molecule (OPCML): -0.0002 fraction
  Change from GRMD Baseline (fraction): PIK3CA/PIK3R1 (PIK3CA PIK3R1): -0.229 fraction
  Change from GRMD Baseline (fraction): Parathyroid hormone-related protein (PTHLH): -0.097 fraction
  Change from GRMD Baseline (fraction): Peptidyl-prolyl cis-trans isomerase E (PPIE): -0.0771 fraction
  Change from GRMD Baseline (fraction): Peroxiredoxin-1 (PRDX1): -0.0908 fraction
  Change from GRMD Baseline (fraction): Peroxiredoxin-6 (PRDX6): -0.0459 fraction
  Change from GRMD Baseline (fraction): Phosphatidylethanolamine-binding protein 1 (PEBP1): 0.0739 fraction
  Change from GRMD Baseline (fraction): Phosphoglucomutase-1 (PGM1): 0.1179 fraction
  Change from GRMD Baseline (fraction): Phosphoglycerate mutase 1 (PGAM1): -0.9265 fraction
  Change from GRMD Baseline (fraction): Plasma serine protease inhibitor (SERPINA5): -0.0121 fraction
  Change from GRMD Baseline (fraction): Platelet glycoprotein 4 (CD36): 0.0288 fraction
  Change from GRMD Baseline (fraction): Platelet-activating factor acetylhydrolase (PLA2G7): 0.0256 fraction
  Change from GRMD Baseline (fraction): Platelet-derived growth factor receptor alpha (PDGFRA): -0.0004 fraction
  Change from GRMD Baseline (fraction): Proliferating cell nuclear antigen (PCNA): -0.0276 fraction
  Change from GRMD Baseline (fraction): Protein NOV homolog (NOV): -0.0669 fraction
  Change from GRMD Baseline (fraction): Protein S100-A12 (S100A12): -0.009 fraction
  Change from GRMD Baseline (fraction): RAC-alpha/beta/gamma serine/threonine-protein kinase (AKT1 AKT2 AKT3): -0.2013 fraction
  Change from GRMD Baseline (fraction): RAC-beta serine/threonine-protein kinase (AKT2): -0.1736 fraction
  Change from GRMD Baseline (fraction): Rab GDP dissociation inhibitor beta (GDI2): -0.0642 fraction
  Change from GRMD Baseline (fraction): Receptor tyrosine-protein kinase erbB-3 (ERBB3): -0.022 fraction
  Change from GRMD Baseline (fraction): Receptor-type tyrosine-protein kinase FLT3 (FLT3): -0.0737 fraction
  Change from GRMD Baseline (fraction): Renin (REN): -0.032 fraction
  Change from GRMD Baseline (fraction): Retinoblastoma-associated protein (RB1): 0.235 fraction
  Change from GRMD Baseline (fraction): S-formylglutathione hydrolase (ESD): 0.0004 fraction
  Change from GRMD Baseline (fraction): Serine/threonine-protein kinase 17B (STK17B): 0.0071 fraction
  Change from GRMD Baseline (fraction): Serine/threonine-protein kinase Chk2 (CHEK2): 0.4343 fraction
  Change from GRMD Baseline (fraction): Serine/threonine-protein kinase WNK3 (WNK3): -0.2205 fraction
  Change from GRMD Baseline (fraction): Serine/threonine-protein kinase receptor R3 (ACVRL1): -0.0651 fraction
  Change from GRMD Baseline (fraction): Small nuclear ribonucleoprotein F (SNRPF): -0.0033 fraction
  Change from GRMD Baseline (fraction): Somatostatin-28 (SST): -0.0229 fraction
  Change from GRMD Baseline (fraction): T-lymphocyte activation antigen CD80 (CD80): 0.0022 fraction
  Change from GRMD Baseline (fraction): Thymic stromal lymphopoietin (TSLP): -0.034 fraction
  Change from GRMD Baseline (fraction): Thyroid peroxidase (TPO): -0.0311 fraction
  Change from GRMD Baseline (fraction): Tissue factor pathway inhibitor (TFPI): 0.029 fraction
  Change from GRMD Baseline (fraction): Transcription factor AP-1 (JUN): 0.0325 fraction
  Change from GRMD Baseline (fraction): Transketolase (TKT): -0.16 fraction
  Change from GRMD Baseline (fraction): Translationally-controlled tumor protein (TPT1): -0.0704 fraction
  Change from GRMD Baseline (fraction): Triosephosphate isomerase (TPI1): -0.2239 fraction
  Change from GRMD Baseline (fraction): Tropomyosin beta chain (TPM2): 0.0295 fraction
  Change from GRMD Baseline (fraction): Troponin I, cardiac muscle (TNNI3): 0.0415 fraction
  Change from GRMD Baseline (fraction): Troponin I, fast skeletal muscle (TNNI2): -0.0403 fraction
  Change from GRMD Baseline (fraction): Troponin T, cardiac muscle (TNNT2): -0.0244 fraction
  Change from GRMD Baseline (fraction): Tumor necrosis factor ligand superfamily member 11 (TNFSF11): 0.0726 fraction
  Change from GRMD Baseline (fraction): Tumor necrosis factor receptor superfamily member 1B (TNFRSF1B): -0.0355 fraction
  Change from GRMD Baseline (fraction): Tumor necrosis factor receptor superfamily member 3 (LTBR): -0.0213 fraction
  Change from GRMD Baseline (fraction): Tyrosine-protein kinase Yes (YES1): -0.136 fraction
  Change from GRMD Baseline (fraction): Tyrosine-protein kinase ZAP-70 (ZAP70): 0.0305 fraction
  Change from GRMD Baseline (fraction): Tyrosine-protein phosphatase non-receptor type 1 (PTPN1): -0.0601 fraction
